In patent EP1043336A2, “Stereospecific antibodies for imidazolinone herbicides” (The Regents of the University of California, priority 1999, dated 2000):

Key:
Assay type in all cases: binding, mouse
MAb 3A2 [1] = experiment: BIAcore surface plasmon resonance, equilibrium dissociation constant; details: racemic hapten conjugate
Protocol: (§1) 1. Binding Kinetics. The equilibrium dissociation constants (KD) for MAbs 3A2 and 3A5 were measured by kinetic exclusion fluoroimmunoassay (KinExA) (Blake, D. A., et al. 1997. Characterization of a metal-specific monoclonal antibody. In: Immunochemical Technology for Environmental Applications (ACS Symposium Series 657), eds. DS Aga, EM Thurmann, pp. 49-60. Washington, D.C.: American Chemical Society.), and also in a Pharmacia BIAcore surface plasmon resonance instrument (Malmborg, A.-C. and Borrebaeck, C. A. K. 1995. BIAcore as a tool in antibody engineering. J. Immunol. Methods 183: 7-13.). Since the hapten conjugates used in these rate studies were racemic mixtures, the dissociation constants obtained can only be a median rate for the different chiral isomers.
(§2) The KinExA directly measures free antibody in solution equilibrium by trapping it on beads coated with hapten conjugate. […] 2. […] 4.

[2] = target: MAb 3A5 (VH and VL N-termini SEQ.ID NOS. 1 and 2); experiment: as above; details: racemic hapten conjugate
Protocol: as §1, §2

MAb 3A2 [3] = experiment: Kinetic exclusion fluoroimmunoassay (KinExA), equilibrium dissociation constant; details: hapten conjugate 16-BSA, racemic hapten conjugate
Protocol: as §1, §2

[4] = target: MAb 3A5 (VH and VL N-termini SEQ.ID NOS. 1 and 2); experiment: as above; details: hapten conjugate 16-BSA, racemic hapten conjugate
Protocol: as §1, §2

[5] = tested on: panel of monoclonal antibodies (MAbs); experiment: Detection of imidazolinones by the panel of MAbs (EIA)
Protocol: EIAs were done essentially as described by Karu et al (1994). For indirect EIAs, hapten-protein conjugates were adsorbed to wells of Immulon 2™ 96-well plates (Dynatech) in 0.1 mL of coating buffer (0.015 M Na2CO3 ― 0.035 M NaHCO3 ―0.003 M NaN3, pH 9.6). PBS-Tween containing 0.05% gelatin, 0.45 micron-filtered, was used as the diluent for antibodies and antibody-analyte mixtures, and as a blocking solution to prevent adventitious binding. The detecting antibody for the indirect EIAs was alkaline phosphatase conjugated goat anti-mouse IgG and IgM The substrate solution for color development was p-nitrophenyl phosphate 1 mg/mL, in 10% (w/v) diethanolamine-HCl, pH 9.8 ― 0.5 mM MgCl2 ― 3 mM NaN3. • 1. Indirect competition EIA. Indirect competition EIA (immobilized hapten conjugate) was used to evaluate the responses of mice, screen the MAbs, and quantify imidazolinone analytes. Optimal amounts of imidazolinone-BSA or -OVA conjugate for plate coating and dilutions for the hybridoma culture supernate or antiserum were determined by checkerboard assay. To perform the assay, wells were coated overnight at 4°C with a limiting amount of conjugate in 0.1 mL of coating buffer. Imidazolinone standards (0.5 to 5000 ppb) or unknowns were mixed with a limiting amount of antiserum or hybridoma culture fluid in the diluent and incubated overnight at 4°C in tightly sealed polypropylene tubes. The coated wells were washed and blocked with 0.2 mL of 0.05% gelatin in PBS-Tween for 30 minutes at room temperature. After another wash, aliquots (0.1 mL) of the antibody-analyte mixture were added to wells, and the remainder of the assay was performed as previously described (Karu et al., 1994). • 2. Direct competition EIA. Direct EIAs were performed by capturing the MAb on microwells and allowing the analyte to compete with a HRP-conjugated hapten for binding. Bound HRP-conjugate was then detected with a commercial HRP substrate. The sensitivity of this assay was enhanced by use of a commercial enzymatic signal amplification kit (GIBCO-BRL). Wells were coated with 200 or 500 ng of affinity-purified goat anti-mouse IgG or anti-mouse IgG Fc in the coating buffer at 4°C overnight. The next day, the wells were washed and blocked with PBS-Tween-gelatin for 30 minutes at room temperature, and then incubated for 1.5 hours at room temperature with hybridoma culture supernate. The plates were washed with PBS-Tween, and 0.1 mL of diluent containing the analyte and a limiting amount of biotinylated imidazolinone was added for 1.5 h at room temperature. The wells were washed three times with PBS-Tween, and Extravidin-alkaline phosphatase conjugate (Sigma) was then added for 30 minutes at room temperature. The plates were washed again with TBS (0.05 M Tris-HCl, pH 7.5,― 0.15 M NaCl) to remove remaining inorganic phosphate, which can inhibit the GIBCO-BRL EIA Amplification system. Substrate solution for the amplification step (0.05 mL) was added for 15 minutes at room temperature, followed by 0.05 mL of the enzymatic amplifying solution and chromogen. Color development at 492 nm was recorded. • 3. EIA Data Analysis. Color development was monitored on a Multiskan EIA reader (Flow Laboratories) interfaced with a Macintosh computer, and the rates of the reaction were calculated by linear regression. Competition EIA dose- response curves were fitted with a 4-parameter logistic equation (Karu et al., 1994).

CCc1cnc(C2=NC(C)(C(C)C)C(=O)N2)c(C(=O)O)c1 (stereo not shown) [imazethapyr, 5-ethyl-2-(4-isopropyl-4-methyl-5-oxo-2-imidazolin-2-yl) nicotinic acid]
Kd (MAb 3A2 [1]; hapten conjugate 16-OA): 24.7 nM
Kd (MAb 3A2 [1]; hapten conjugate 17-OA): 51.6 nM
Kd ([2]; hapten conjugate 16-OA): 9.6 nM
Kd ([2]; hapten conjugate 17-OA): 10.8 nM
Kd (MAb 3A2 [3]): 11.4 nM
Kd [4]: 73 nM
detection range [5]: 3 to 30 ng/mL
